Experimental data reported in ChEMBL document CHEMBL3885861, “Open TG-GATES”.

Species on record: Rattus norvegicus
Assay: Open TG-GATES - Regimen: Single
Assay type: toxicity, organism-based, Sprague-Dawley
Set-up: regimen Single, gender Male, age 6 weeks
Conditions: in vivo, po, route gavage; for APTT / Bas / Eos / Fbg / Hb / Ht / Lym / MCH / MCHC / MCV / Mono / Neu / PT / Plat / RBC / Ret / WBC: tissue Blood; for A/G / ALP / ALT / AST / BUN / CRE / Ca / Cl / DBIL / GLC / IP / K / LDH / Na / PL / RALB / TBIL / TC / TG / TP / gamma-GTP: tissue Plasma
[1] = 30 mg/kg, 3 h, dose level Middle
[2] = 30 mg/kg, 6 h, dose level Middle
[3] = 30 mg/kg, 9 h, dose level Middle
[4] = 30 mg/kg, 24 h, dose level Middle
[5] = 100 mg/kg, 3 h, dose level High
[6] = 100 mg/kg, 6 h, dose level High
[7] = 100 mg/kg, 9 h, dose level High
[8] = 100 mg/kg, 24 h, dose level High

Cn1cc[nH]c1=S [METHIMAZOLE]
TERMINAL_BW [1]: 210.9 g | APTT [1]: 22.2 s | Bas [1]: 0% | Eos [1]: 1% | Fbg [1]: 305 mg/dL | Hb [1]: 14.3 g/dL | Ht [1]: 40.3% | Lym [1]: 73.2% | MCH [1]: 21.7 pg | MCHC [1]: 35.4% | MCV [1]: 61.4 fL | Mono [1]: 3% | Neu [1]: 21.8% | PT [1]: 15.9 s | Plat [1]: 120.3 x10_4/uL | RBC [1]: 657.4 x10_4/ul | Ret [1]: 8% | WBC [1]: 65.4 x10_2/uL | A/G [1]: 1.1 | ALP [1]: 1707.8 IU/L | ALT [1]: 42.8 IU/L | AST [1]: 72.2 IU/L | BUN [1]: 10.4 mg/dL | CRE [1]: 0.1 mg/dL | Ca [1]: 10.7 mg/dL | Cl [1]: 105 meq/L | DBIL [1]: 0 mg/dL | GLC [1]: 186.4 mg/dL | IP [1]: 10.1 mg/dL | K [1]: 4.3 meq/L | LDH [1]: 250.2 IU/L | Na [1]: 141.6 meq/L | PL [1]: 146 mg/dL | RALB [1]: 2.9 g/dL | TBIL [1]: 0.006 mg/dL | TC [1]: 82.4 mg/dL | TG [1]: 64.4 mg/dL | TP [1]: 5.7 g/dL | gamma-GTP [1]: 1 IU/L | TERMINAL_BW [2]: 208.1 g | APTT [2]: 22.7 s | Bas [2]: 0% | Eos [2]: 1% | Fbg [2]: 316.8 mg/dL | Hb [2]: 14 g/dL | Ht [2]: 40% | Lym [2]: 73.6% | MCH [2]: 22 pg | MCHC [2]: 35% | MCV [2]: 62.7 fL | Mono [2]: 2.8% | Neu [2]: 21.8% | PT [2]: 16.2 s | Plat [2]: 123.7 x10_4/uL | RBC [2]: 637.2 x10_4/ul | Ret [2]: 8.4% | WBC [2]: 68.1 x10_2/uL | A/G [2]: 1.2 | ALP [2]: 1225.2 IU/L | ALT [2]: 46.2 IU/L | AST [2]: 71.8 IU/L | BUN [2]: 11.8 mg/dL | CRE [2]: 0.1 mg/dL | Ca [2]: 10.6 mg/dL | Cl [2]: 103.4 meq/L | DBIL [2]: 0.002 mg/dL | GLC [2]: 196.2 mg/dL | IP [2]: 9.4 mg/dL | K [2]: 4.2 meq/L | LDH [2]: 329.8 IU/L | Na [2]: 140.4 meq/L | PL [2]: 141.2 mg/dL | RALB [2]: 2.9 g/dL | TBIL [2]: 0.01 mg/dL | TC [2]: 79.8 mg/dL | TG [2]: 45 mg/dL | TP [2]: 5.5 g/dL | gamma-GTP [2]: 1 IU/L | TERMINAL_BW [3]: 205.3 g | APTT [3]: 22.1 s | Bas [3]: 0% | Eos [3]: 1.2% | Fbg [3]: 299.8 mg/dL | Hb [3]: 13.7 g/dL | Ht [3]: 38.8% | Lym [3]: 75.4% | MCH [3]: 21.5 pg | MCHC [3]: 35.4% | MCV [3]: 60.8 fL | Mono [3]: 2.4% | Neu [3]: 20.2% | PT [3]: 15.7 s | Plat [3]: 121.8 x10_4/uL | RBC [3]: 640 x10_4/ul | Ret [3]: 8.1% | WBC [3]: 70 x10_2/uL | A/G [3]: 1.2 | ALP [3]: 1422 IU/L | ALT [3]: 43.8 IU/L | AST [3]: 71.4 IU/L | BUN [3]: 12.8 mg/dL | CRE [3]: 0.1 mg/dL | Ca [3]: 10.5 mg/dL | Cl [3]: 105.2 meq/L | DBIL [3]: 0.004 mg/dL | GLC [3]: 198 mg/dL | IP [3]: 8.7 mg/dL | K [3]: 3.8 meq/L | LDH [3]: 353.6 IU/L | Na [3]: 140.6 meq/L | PL [3]: 155.8 mg/dL | RALB [3]: 3 g/dL | TBIL [3]: 0.012 mg/dL | TC [3]: 85.4 mg/dL | TG [3]: 81 mg/dL | TP [3]: 5.6 g/dL | gamma-GTP [3]: 1 IU/L | TERMINAL_BW [4]: 212.4 g | APTT [4]: 21 s | Bas [4]: 0% | Eos [4]: 1% | Fbg [4]: 320.4 mg/dL | Hb [4]: 13.9 g/dL | Ht [4]: 39.6% | Lym [4]: 76.6% | MCH [4]: 21.8 pg | MCHC [4]: 35.2% | MCV [4]: 62 fL | Mono [4]: 2.4% | Neu [4]: 19% | PT [4]: 16.3 s | Plat [4]: 115.8 x10_4/uL | RBC [4]: 640 x10_4/ul | Ret [4]: 7.8% | WBC [4]: 84 x10_2/uL | A/G [4]: 1.1 | ALP [4]: 1634.4 IU/L | ALT [4]: 42.4 IU/L | AST [4]: 64.6 IU/L | BUN [4]: 15.4 mg/dL | CRE [4]: 0.1 mg/dL | Ca [4]: 10.7 mg/dL | Cl [4]: 106 meq/L | DBIL [4]: 0 mg/dL | GLC [4]: 180.6 mg/dL | IP [4]: 7 mg/dL | K [4]: 4.4 meq/L | LDH [4]: 211.4 IU/L | Na [4]: 141.6 meq/L | PL [4]: 158.6 mg/dL | RALB [4]: 3 g/dL | TBIL [4]: 0.002 mg/dL | TC [4]: 84.6 mg/dL | TG [4]: 131.4 mg/dL | TP [4]: 5.6 g/dL | gamma-GTP [4]: 1 IU/L | TERMINAL_BW [5]: 213.6 g | APTT [5]: 21.9 s | Bas [5]: 0% | Eos [5]: 1.2% | Fbg [5]: 315 mg/dL | Hb [5]: 13.9 g/dL | Ht [5]: 39.4% | Lym [5]: 74% | MCH [5]: 21.8 pg | MCHC [5]: 35.2% | MCV [5]: 61.9 fL | Mono [5]: 2% | Neu [5]: 23% | PT [5]: 15.4 s | Plat [5]: 121.9 x10_4/uL | RBC [5]: 636.8 x10_4/ul | Ret [5]: 8.7% | WBC [5]: 50 x10_2/uL | A/G [5]: 1.2 | ALP [5]: 1490.2 IU/L | ALT [5]: 55 IU/L | AST [5]: 72.8 IU/L | BUN [5]: 11.8 mg/dL | CRE [5]: 0.1 mg/dL | Ca [5]: 10.6 mg/dL | Cl [5]: 102.8 meq/L | DBIL [5]: 0.002 mg/dL | GLC [5]: 191.2 mg/dL | IP [5]: 9.7 mg/dL | K [5]: 4.2 meq/L | LDH [5]: 351.4 IU/L | Na [5]: 140 meq/L | PL [5]: 153.6 mg/dL | RALB [5]: 3 g/dL | TBIL [5]: 0.008 mg/dL | TC [5]: 89.2 mg/dL | TG [5]: 62.8 mg/dL | TP [5]: 5.6 g/dL | gamma-GTP [5]: 1 IU/L | TERMINAL_BW [6]: 210.2 g | APTT [6]: 22.6 s | Bas [6]: 0% | Eos [6]: 0.8% | Fbg [6]: 306.6 mg/dL | Hb [6]: 14.1 g/dL | Ht [6]: 40.5% | Lym [6]: 72.4% | MCH [6]: 21.4 pg | MCHC [6]: 34.7% | MCV [6]: 61.7 fL | Mono [6]: 3% | Neu [6]: 23% | PT [6]: 16 s | Plat [6]: 117.2 x10_4/uL | RBC [6]: 657.2 x10_4/ul | Ret [6]: 7.8% | WBC [6]: 83.4 x10_2/uL | A/G [6]: 1.1 | ALP [6]: 1474.2 IU/L | ALT [6]: 46.2 IU/L | AST [6]: 66.8 IU/L | BUN [6]: 10 mg/dL | CRE [6]: 0.1 mg/dL | Ca [6]: 10.5 mg/dL | Cl [6]: 104.4 meq/L | DBIL [6]: 0.002 mg/dL | GLC [6]: 193 mg/dL | IP [6]: 9.1 mg/dL | K [6]: 4.2 meq/L | LDH [6]: 344.8 IU/L | Na [6]: 140.2 meq/L | PL [6]: 136.6 mg/dL | RALB [6]: 2.9 g/dL | TBIL [6]: 0.014 mg/dL | TC [6]: 80.2 mg/dL | TG [6]: 52.4 mg/dL | TP [6]: 5.5 g/dL | gamma-GTP [6]: 1.2 IU/L | TERMINAL_BW [7]: 206.1 g | APTT [7]: 21.2 s | Bas [7]: 0% | Eos [7]: 1% | Fbg [7]: 319.2 mg/dL | Hb [7]: 13.8 g/dL | Ht [7]: 39% | Lym [7]: 71.4% | MCH [7]: 21.8 pg | MCHC [7]: 35.3% | MCV [7]: 61.7 fL | Mono [7]: 2.8% | Neu [7]: 23.4% | PT [7]: 16.5 s | Plat [7]: 134.8 x10_4/uL | RBC [7]: 631.2 x10_4/ul | Ret [7]: 8.1% | WBC [7]: 88.6 x10_2/uL | A/G [7]: 1.2 | ALP [7]: 1403 IU/L | ALT [7]: 47 IU/L | AST [7]: 69.8 IU/L | BUN [7]: 12.6 mg/dL | CRE [7]: 0.1 mg/dL | Ca [7]: 10.4 mg/dL | Cl [7]: 105.6 meq/L | DBIL [7]: 0.004 mg/dL | GLC [7]: 195.2 mg/dL | IP [7]: 8.6 mg/dL | K [7]: 4.2 meq/L | LDH [7]: 309.6 IU/L | Na [7]: 140.6 meq/L | PL [7]: 144.4 mg/dL | RALB [7]: 2.9 g/dL | TBIL [7]: 0.014 mg/dL | TC [7]: 78.6 mg/dL | TG [7]: 71.6 mg/dL | TP [7]: 5.5 g/dL | gamma-GTP [7]: 1 IU/L | TERMINAL_BW [8]: 209.2 g | APTT [8]: 20.8 s | Bas [8]: 0% | Eos [8]: 1.2% | Fbg [8]: 303.8 mg/dL | Hb [8]: 14.1 g/dL | Ht [8]: 40% | Lym [8]: 76.8% | MCH [8]: 21.6 pg | MCHC [8]: 35.3% | MCV [8]: 61.1 fL | Mono [8]: 2.4% | Neu [8]: 18.8% | PT [8]: 16.5 s | Plat [8]: 125.7 x10_4/uL | RBC [8]: 655.6 x10_4/ul | Ret [8]: 7.6% | WBC [8]: 63.5 x10_2/uL | A/G [8]: 1.2 | ALP [8]: 1903.8 IU/L | ALT [8]: 44.2 IU/L | AST [8]: 55.6 IU/L | BUN [8]: 12.6 mg/dL | CRE [8]: 0.1 mg/dL | Ca [8]: 10.9 mg/dL | Cl [8]: 106.4 meq/L | DBIL [8]: 0.004 mg/dL | GLC [8]: 170 mg/dL | IP [8]: 7.2 mg/dL | K [8]: 4.3 meq/L | LDH [8]: 263 IU/L | Na [8]: 142 meq/L | PL [8]: 159.8 mg/dL | RALB [8]: 2.9 g/dL | TBIL [8]: 0.016 mg/dL | TC [8]: 84.6 mg/dL | TG [8]: 129.6 mg/dL | TP [8]: 5.4 g/dL | gamma-GTP [8]: 1 IU/L
